According to the supplement of paper PMC10307832:

Legend:
Assay in all cases: relative viability (nuclei count vs DMSO), 5 days (fraction); higher = more cells survive
Quizartinib + Tozasertib = compound: CC(C)(C)c1cc(NC(=O)Nc2ccc(-c3cn4c(n3)sc3cc(OCCN5CCOCC5)ccc34)cc2)no1 [Quizartinib] + Cc1cc(Nc2cc(N3CCN(C)CC3)nc(Sc3ccc(NC(=O)C4CC4)cc3)n2)n[nH]1 [Tozasertib] (partner 0.1 µM)
How it was run: (§1)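 Relative viability equals treated-well nuclei counts divided by vehicle-well nuclei counts. Counts came from 4× images of lung cancer cell lines grown in 1536-well plates for 5 days after pin-tool dosing on the day after seeding. Dosing used one drug alone or a fixed anchor-drug dose plus five library-drug doses (not always all listed) in √10 steps, and values are medians of duplicate plates.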

Quizartinib + Pemetrexed = compound: CC(C)(C)c1cc(NC(=O)Nc2ccc(-c3cn4c(n3)sc3cc(OCCN5CCOCC5)ccc34)cc2)no1 [Quizartinib] + Nc1nc2[nH]cc(CCc3ccc(C(=O)N[C@@H](CCC(=O)O)C(=O)O)cc3)c2c(=O)[nH]1 [Pemetrexed] (partner 0.2 µM)
How it was run: as §1

Quizartinib + Decitabine = compound: CC(C)(C)c1cc(NC(=O)Nc2ccc(-c3cn4c(n3)sc3cc(OCCN5CCOCC5)ccc34)cc2)no1 [Quizartinib] + Nc1ncn([C@H]2C[C@H](O)[C@@H](CO)O2)c(=O)n1 [Decitabine] (partner 2 µM)
How it was run: as §1

Quizartinib + Vorinostat = compound: CC(C)(C)c1cc(NC(=O)Nc2ccc(-c3cn4c(n3)sc3cc(OCCN5CCOCC5)ccc34)cc2)no1 [Quizartinib] + O=C(CCCCCCC(=O)Nc1ccccc1)NO [Vorinostat] (partner 1 µM)
How it was run: as §1

YM155 + Palbociclib = compound: COCC[n+]1c2c(n(Cc3cnccn3)c1C)C(=O)c1ccccc1C2=O [YM155] + CC(=O)c1c(C)c2cnc(Nc3ccc(N4CCNCC4)cn3)nc2n(C2CCCC2)c1=O [Palbociclib] (partner 0.5 µM)
How it was run: as §1

YM155 + OSI-027 = compound: COCC[n+]1c2c(n(Cc3cnccn3)c1C)C(=O)c1ccccc1C2=O [YM155] + COc1cccc2cc(-c3nc([C@H]4CC[C@H](C(=O)O)CC4)n4ncnc(N)c34)[nH]c12 [OSI-027] (partner 0.5 µM)
How it was run: as §1

## NCI-H1648
Quizartinib + Tozasertib; first compound 0.01 µM
  relative viability: 0.38
Quizartinib + Tozasertib; first compound 0.03162 µM
  relative viability: 0.341
Quizartinib + Tozasertib; first compound 0.1 µM
  relative viability: 0.585
Quizartinib + Pemetrexed; first compound 0.003162 µM
  relative viability: 0.617
Quizartinib + Pemetrexed; first compound 0.03162 µM
  relative viability: 0.552
Quizartinib + Pemetrexed; first compound 0.1 µM
  relative viability: 1.05
Quizartinib + Decitabine; first compound 0.003162 µM
  relative viability: 0.461
Quizartinib + Decitabine; first compound 0.03162 µM
  relative viability: 0.548
Quizartinib + Decitabine; first compound 0.1 µM
  relative viability: 0.745
Quizartinib + Vorinostat; first compound 0.003162 µM
  relative viability: 0.315
Quizartinib + Vorinostat; first compound 0.03162 µM
  relative viability: 0.32
Quizartinib + Vorinostat; first compound 0.1 µM
  relative viability: 0.927
YM155 + Palbociclib; first compound 0.006325 µM
  relative viability: 0.299
YM155 + Palbociclib; first compound 0.02 µM
  relative viability: 0.306
YM155 + Palbociclib; first compound 0.06325 µM
  relative viability: 0.295
YM155 + OSI-027; first compound 0.002 µM
  relative viability: 0.283
YM155 + OSI-027; first compound 0.006325 µM
  relative viability: 0.271
YM155 + OSI-027; first compound 0.02 µM
  relative viability: 0.259
YM155 + OSI-027; first compound 0.06325 µM
  relative viability: 0.231
